# Measurements reported in ChEMBL document CHEMBL1201862, “PubChem BioAssay data set” (2004).
#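 Five compound concentrations were applied to cells in 96-well plates for 48 hours; endpoints were derived by simple linear interpolation of the resulting dose-response curve. GI50: concentration for 50% inhibition of growth.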 Calls of active or inactive are those of the source. No stated cut-off is given here; in the data, active = GI50 up to about 1.1 µM and inactive = higher.
# How the values were obtained:
# Assay in all cases: NCI-60 cell line screen, 48 h
# [1] = tested on: UO-31
# [2] = tested on: OVCAR-5
# [3] = tested on: EKVX
# [4] = tested on: RPMI-8226
# [5] = tested on: SK-MEL-28
# [6] = tested on: CCRF-CEM
# [7] = tested on: COLO 205
# [8] = tested on: SK-MEL-5
# [9] = tested on: SF-539
# [10] = tested on: SNB-75
# [11] = tested on: SK-OV-3
# [12] = tested on: LXFL 529
# [13] = tested on: A549
# [14] = tested on: IGROV-1
# [15] = tested on: A498
# [16] = tested on: RXF 631
# [17] = tested on: MOLT-4
# [18] = tested on: LOX IMVI
# [19] = tested on: HCT-15
# [20] = tested on: HOP-62
# [21] = tested on: HCC 2998
# [22] = tested on: SK-MEL-2
# [23] = tested on: RXF 393
# [24] = tested on: M19-MEL
# [25] = tested on: CAKI-1
# [26] = tested on: SN12C
# [27] = tested on: DMS-114
# [28] = tested on: HCT-116
# [29] = tested on: U-251
# [30] = tested on: NCI-H23
# [31] = tested on: SW-620
# [32] = tested on: HOP-92
# [33] = tested on: SNB-78
# [34] = tested on: M14
# [35] = tested on: DLD-1
# [36] = tested on: K562
# [37] = tested on: SF-268
# [38] = tested on: SNB-19
# [39] = tested on: Malme-3M
# [40] = tested on: OVCAR-4
# [41] = tested on: NCI-H522
# [42] = tested on: OVCAR-8
# [43] = tested on: ACHN
# [44] = tested on: KM-20L2
# [45] = tested on: TK-10
# [46] = tested on: 786-0
# [47] = tested on: NCI-H226
# [48] = tested on: NCI-H460
# [49] = tested on: HL-60
# [50] = tested on: UACC-62
# [51] = tested on: HOP-18
# [52] = tested on: HT-29
# [53] = tested on: DMS-273
# [54] = tested on: SF-295
# [55] = tested on: UACC-257
# [56] = tested on: OVCAR-3
# [57] = tested on: KM12
smiles,measurement,setting,value
CC(C)c1ccccc1NC(=O)/C(Cl)=C1/Sc2ccccc2NC1=O,GI50,[1],32.8 µM (inactive)
same,GI50,[2],43.3 µM (inactive)
same,GI50,[3],49.1 µM (inactive)
same,GI50,[4],20.9 µM (inactive)
same,GI50,[5],33.4 µM (inactive)
same,GI50,[6],24.6 µM (inactive)
same,GI50,[7],21.4 µM (inactive)
same,GI50,[8],20.6 µM (inactive)
same,GI50,[9],21.9 µM (inactive)
same,GI50,[10],22.7 µM (inactive)
same,GI50,[11],18.4 µM (inactive)
same,GI50,[12],14.5 µM (inactive)
same,GI50,[13],32.3 µM (inactive)
same,GI50,[14],27 µM (inactive)
same,GI50,[15],32.6 µM (inactive)
same,GI50,[16],34 µM (inactive)
same,GI50,[17],24.8 µM (inactive)
same,GI50,[18],29.2 µM (inactive)
same,GI50,[19],22.8 µM
same,GI50,[20],30.8 µM (inactive)
same,GI50,[21],23.6 µM (inactive)
same,GI50,[22],15.7 µM (inactive)
same,GI50,[23],13.3 µM (inactive)
same,GI50,[24],34 µM (inactive)
same,GI50,[25],17.5 µM (inactive)
same,GI50,[26],34 µM (inactive)
same,GI50,[27],18.5 µM (inactive)
same,GI50,[28],28.8 µM (inactive)
same,GI50,[29],35 µM (inactive)
same,GI50,[30],19.6 µM (inactive)
same,GI50,[31],25.2 µM (inactive)
same,GI50,[32],11.6 µM (inactive)
same,GI50,[33],30.5 µM (inactive)
same,GI50,[34],22.4 µM (inactive)
same,GI50,[35],35.5 µM (inactive)
same,GI50,[36],14.8 µM (inactive)
same,GI50,[37],34 µM (inactive)
same,GI50,[38],38.5 µM (inactive)
same,GI50,[39],20 µM (inactive)
same,GI50,[40],21.9 µM (inactive)
same,GI50,[41],17.9 µM (inactive)
same,GI50,[42],43.4 µM (inactive)
same,GI50,[43],37.4 µM (inactive)
same,GI50,[44],24.2 µM (inactive)
same,GI50,[45],71.9 µM (inactive)
same,GI50,[46],30.5 µM (inactive)
same,GI50,[47],26.9 µM (inactive)
same,GI50,[48],34.5 µM (inactive)
same,GI50,[49],21.2 µM (inactive)
same,GI50,[50],20.3 µM (inactive)
O=c1/c(=C/c2cccc3ccccc23)sc2nc3ccccc3n12,GI50,[1],> 100 µM (inactive)
same,GI50,[2],> 100 µM (inactive)
same,GI50,[3],> 100 µM (inactive)
same,GI50,[5],> 100 µM (inactive)
same,GI50,[51],> 100 µM (inactive)
same,GI50,[52],> 100 µM (inactive)
same,GI50,[7],> 100 µM (inactive)
same,GI50,[8],> 100 µM (inactive)
same,GI50,[9],> 100 µM (inactive)
same,GI50,[10],71.9 µM (inactive)
same,GI50,[53],> 100 µM (inactive)
same,GI50,[12],> 100 µM (inactive)
same,GI50,[13],> 100 µM (inactive)
same,GI50,[14],> 100 µM (inactive)
same,GI50,[15],> 100 µM (inactive)
same,GI50,[16],> 100 µM (inactive)
same,GI50,[18],> 100 µM (inactive)
same,GI50,[19],> 100 µM
same,GI50,[20],> 100 µM (inactive)
same,GI50,[21],> 100 µM (inactive)
same,GI50,[22],> 100 µM (inactive)
same,GI50,[23],> 100 µM (inactive)
same,GI50,[24],> 100 µM (inactive)
same,GI50,[25],> 100 µM (inactive)
same,GI50,[26],> 100 µM (inactive)
same,GI50,[27],> 100 µM (inactive)
same,GI50,[28],> 100 µM (inactive)
same,GI50,[54],> 100 µM (inactive)
same,GI50,[29],> 100 µM (inactive)
same,GI50,[30],> 100 µM (inactive)
same,GI50,[31],> 100 µM (inactive)
same,GI50,[32],> 100 µM (inactive)
same,GI50,[33],> 100 µM (inactive)
same,GI50,[55],> 100 µM (inactive)
same,GI50,[34],> 100 µM (inactive)
same,GI50,[35],> 100 µM (inactive)
same,GI50,[56],> 100 µM (inactive)
same,GI50,[36],> 100 µM (inactive)
same,GI50,[37],> 100 µM (inactive)
same,GI50,[38],> 100 µM (inactive)
same,GI50,[39],> 100 µM (inactive)
same,GI50,[40],> 100 µM (inactive)
same,GI50,[41],> 100 µM (inactive)
same,GI50,[42],> 100 µM (inactive)
same,GI50,[43],> 100 µM (inactive)
same,GI50,[44],> 100 µM (inactive)
same,GI50,[45],> 100 µM (inactive)
same,GI50,[46],> 100 µM (inactive)
same,GI50,[47],> 100 µM (inactive)
same,GI50,[48],> 100 µM (inactive)
same,GI50,[57],> 100 µM (inactive)
same,GI50,[49],> 100 µM (inactive)
same,GI50,[50],> 100 µM (inactive)
